The values below come from ChEMBL document CHEMBL1201862, “PubChem BioAssay data set” (2004).

Test systems include HOP-62; MDA-MB-231; DU-145; A498; UO-31; T47D; BT-549; NCI/ADR-RES; PC-3; MOLT-4; SF-295; HCT-116; SR; MCF7; XF498; DMS-273; M19-MEL; KM-20L2; DMS-114; HOP-18.
Holding throughout (experiment): NCI tumour cell line growth inhibition, 48 h

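Values below derive from 48-hour exposures of cells grown in 96-well plates, with endpoints linearly interpolated between the two concentrations bracketing the appropriate inhibition level. Here, GI50 denotes the concentration required for 50% inhibition of growth.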 The source made the active and inactive calls. Rule as the data show it: active = GI50 up to about 1.1 µM and inactive = higher.

With `O=c1ccn(COC(COCc2ccccc2)COCc2ccccc2)c(=O)[nH]1`, the GI50 with HOP-62 was > 100 µM (inactive); in the assay on MDA-MB-231, 55.3 µM (inactive); with DU-145 it was > 100 µM (inactive); in the assay on A498, > 100 µM (inactive); with UO-31, 51.4 µM (inactive); with T47D it was 64.1 µM (inactive). The GI50 in the assay with BT-549 is > 100 µM (inactive); in the assay with NCI/ADR-RES, > 100 µM (inactive); with PC-3 it was 77.6 µM (inactive); in the assay on MOLT-4 it was 24.2 µM (inactive); in the assay with SF-295, > 100 µM (inactive); in the assay on HCT-116 it was > 100 µM (inactive). In addition, the results for the GI50 in the assay on SR and in the assay with MCF7 were 62.8 µM (inactive) and > 100 µM (inactive), respectively.
For `C[C@H]1C(=O)O[C@@H]1[C@H]1COC(C)(C)O1`, the GI50 in the assay on HOP-62, in the assay on MDA-MB-231, in the assay with A498, in the assay on UO-31, with BT-549 and in the assay on NCI/ADR-RES was > 100 µM (inactive) throughout. Further, the GI50 in the assay on PC-3, with MOLT-4, with SF-295, in the assay with SR and in the assay on MCF7 was > 100 µM (inactive) throughout.
In the case of `CCOc1ccc(/C(C=O)=C(\Cl)c2ccc(OC)c(OC)c2)cc1`, the GI50 in the assay with A498 was > 100 µM (inactive); in the assay with XF498, 45.2 µM (inactive); in the assay on UO-31, > 100 µM (inactive); in the assay with DMS-273 it was > 100 µM (inactive); with SF-295, 79.6 µM (inactive); with HCT-116, > 100 µM (inactive). Besides, the GI50 in the assay with M19-MEL, in the assay with KM-20L2, with DMS-114 and with HOP-18 was > 100 µM (inactive) throughout.
Take `O=C(/C=N/c1ccccc1S)c1ccco1`: the GI50 with HOP-62 was 3.66 µM (inactive); in the assay on UO-31, 1.86 µM (inactive); in the assay with DMS-273, 11.2 µM (inactive); with MOLT-4, 5.32 µM (inactive); in the assay with SF-295, 5.08 µM (inactive); in the assay with HCT-116 it was 3.15 µM (inactive). For the same molecule, the GI50 with M19-MEL is 12.2 µM (inactive); in the assay on KM-20L2, 14.5 µM (inactive); with DMS-114, 15.3 µM (inactive); in the assay on HOP-18, 17.7 µM (inactive).
For the molecule `COc1cc(/C=C/C(=O)Oc2ccc(NC(C)=O)cc2)ccc1C(=O)O/C=C/c1ccccc1`, the GI50 in the assay on HOP-62 is > 100 µM (inactive); in the assay with A498 it was > 100 µM (inactive); in the assay with XF498, > 100 µM (inactive); with UO-31, 76.4 µM (inactive); in the assay with DMS-273, > 100 µM (inactive); in the assay on NCI/ADR-RES it was > 100 µM (inactive). In addition, the GI50 in the assay on MOLT-4 was 66.8 µM (inactive); in the assay with SF-295, > 100 µM (inactive); in the assay on HCT-116, > 100 µM (inactive); in the assay with M19-MEL, > 100 µM (inactive); with MCF7, > 100 µM (inactive); with KM-20L2, > 100 µM (inactive). In addition, the GI50 in the assay with DMS-114 and in the assay on HOP-18 was > 100 µM (inactive) each time.
In the case of `CCOC(=O)NC(Nc1ncccn1)(C(=O)OCC)C(F)(F)F` (stereo not given), the GI50 with MDA-MB-231 was > 100 µM (inactive); in the assay on DU-145, > 100 µM (inactive); in the assay with UO-31 it was > 100 µM (inactive); with T47D it was 56 µM (inactive); in the assay with BT-549, > 100 µM (inactive); in the assay on NCI/ADR-RES it was > 100 µM (inactive). The GI50 in the assay on PC-3, in the assay with MOLT-4, in the assay with SF-295, in the assay with HCT-116, with SR and in the assay with MCF7 was > 100 µM (inactive) in each case.
For the molecule `CCC(C(=O)O)c1ccc(OC)cc1` (stereo not given), the GI50 in the assay on HOP-62, in the assay on A498, with XF498, with UO-31, in the assay with DMS-273 and in the assay with MOLT-4 was > 100 µM (inactive) each time. In addition, the GI50 with SF-295, in the assay on HCT-116, in the assay on SR, in the assay with M19-MEL, in the assay on KM-20L2 and in the assay with DMS-114 was > 100 µM (inactive) each time.
Consider `CC(C)(C)OC(=O)NCC(=O)NC1C/C(=N\O)c2sccc21` (stereo not given), for which the GI50 with HOP-62, in the assay with MDA-MB-231, in the assay with DU-145, with A498, in the assay on UO-31 and in the assay with T47D was > 100 µM (inactive) throughout. For the same molecule, the GI50 in the assay with BT-549 is > 100 µM (inactive); in the assay with NCI/ADR-RES it was > 100 µM (inactive); with PC-3, > 100 µM (inactive); with MOLT-4 it was 0.621 µM (active); in the assay with SF-295, > 100 µM (inactive); with HCT-116 it was > 100 µM (inactive). Further, the GI50 in the assay with SR and in the assay on MCF7 was > 100 µM (inactive) throughout.
`O=c1[nH]c(-c2ccc(Cl)cc2)cc2ccsc12`: the GI50 with HOP-62 was 8.07 µM (inactive); with DU-145, 2.05 µM (inactive); in the assay on UO-31 it was 5.94 µM (inactive); in the assay on T47D, 2.37 µM (inactive); with BT-549, 4.82 µM (inactive); in the assay with NCI/ADR-RES, 3.56 µM (inactive). Further, the GI50 is 8.83 µM (inactive) with PC-3; 3.78 µM (inactive) in the assay on MOLT-4; 3.42 µM (inactive) with SF-295; 3.3 µM (inactive) in the assay on HCT-116; 0.506 µM (active) in the assay on SR; 5.05 µM (inactive) in the assay with MCF7.
In the case of `COc1ccc(C[C@H](N)C(=O)N2C[C@H](CO)C[C@H](n3ccc(=O)[nH]c3=O)C2)cc1`, the GI50 in the assay with HOP-62, with UO-31, in the assay on DMS-273, with MOLT-4, in the assay with HCT-116 and with SR was > 100 µM (inactive) in each case. Besides, the GI50 in the assay with M19-MEL, in the assay on KM-20L2, in the assay with DMS-114 and in the assay with HOP-18 was > 100 µM (inactive) each time.
With `CCOC(=O)NC(Nc1ccc(Cl)cn1)(C(F)(F)F)C(F)(F)F`, the GI50 in the assay on HOP-62 is > 100 µM (inactive); in the assay with MDA-MB-231, > 100 µM (inactive); in the assay on DU-145, > 100 µM (inactive); in the assay with A498 it was > 100 µM (inactive); in the assay on UO-31, 41.4 µM (inactive); in the assay with T47D, > 100 µM (inactive). Also, the GI50 in the assay with BT-549, with MOLT-4, in the assay on HCT-116, with SR and in the assay with MCF7 was > 100 µM (inactive) each time.
As to `O=C1Sc2sc(=S)sc2SC1c1ccccc1` (stereo not given), the GI50 was > 100 µM (inactive) with HOP-62; > 100 µM (inactive) with A498; 45.2 µM (inactive) with XF498; 39 µM (inactive) with UO-31; > 100 µM (inactive) in the assay with DMS-273; 40.5 µM (inactive) with NCI/ADR-RES. Besides, the GI50 is 31.6 µM (inactive) in the assay on MOLT-4; > 81.1 µM (inactive) in the assay on SF-295; > 59 µM (inactive) with HCT-116; 60.4 µM (inactive) with M19-MEL; 67.9 µM (inactive) in the assay with MCF7; > 63.5 µM (inactive) in the assay with KM-20L2. Besides, the GI50 was 34.3 µM (inactive) with DMS-114 and 48.1 µM (inactive) in the assay with HOP-18.
On to `O=C1c2ccccc2C(=O)N1CC(O)COc1cccc2ccccc12` (stereo not given), for which the GI50 was > 100 µM (inactive) in the assay with HOP-62; > 100 µM (inactive) with MDA-MB-231; > 100 µM (inactive) with DU-145; 73.5 µM (inactive) in the assay with A498; > 100 µM (inactive) with UO-31; > 10 µM (inactive) in the assay with T47D. The GI50 in the assay with NCI/ADR-RES was > 100 µM (inactive); with PC-3 it was > 100 µM (inactive); in the assay on MOLT-4 it was > 100 µM (inactive); with SF-295 it was 98.2 µM (inactive); in the assay with HCT-116, > 100 µM (inactive); in the assay on SR, > 100 µM (inactive). Further, in the assay on MCF7, the GI50 was > 100 µM (inactive).
In the case of `Clc1ccc(C[P+](c2ccccc2)(c2ccccc2)c2ccccc2)c(Cl)c1`, the GI50 is 2.79 µM (inactive) in the assay on HOP-62; 4.61 µM (inactive) in the assay on A498; 1.61 µM (inactive) in the assay with XF498; 1.93 µM (inactive) with DMS-273; 3.3 µM (inactive) with MOLT-4; 3.08 µM (inactive) with SF-295. The GI50 was 1.63 µM (inactive) with HCT-116; 1.89 µM (inactive) in the assay with SR; 1.88 µM (inactive) in the assay with M19-MEL; 2.61 µM (inactive) with KM-20L2; 1.52 µM (inactive) with DMS-114.
As for `CCC(C)C1NC(=O)C2CCCN2C(=O)C(CC2CO2)OC(=O)CCNC(=O)C(C)N(C)C(=O)C(C(C)C)N(C)C1=O` (stereo not given), the GI50 in the assay on HOP-62 is 0.112 µM (active); with MDA-MB-231, > 22.9 µM (inactive); with A498, > 100 µM (inactive); in the assay on UO-31, 7.31 µM (inactive); with T47D, 6.05 µM (inactive); in the assay with BT-549 it was < 0.0414 µM (active). Also, the GI50 with NCI/ADR-RES was > 47.8 µM (inactive); in the assay on PC-3, 0.889 µM (active); in the assay on MOLT-4, 1.57 µM (inactive); in the assay on SF-295, 0.176 µM (active); in the assay on HCT-116, < 0.0279 µM (active); in the assay on SR, < 0.024 µM (active). Besides, the GI50 with MCF7 is 0.0267 µM (active).
In the case of `OC[C@H]1O[C@@H](n2cnc3cncnc32)[C@H](O)[C@@H]1O` [NEBULARINE], the GI50 was 2.45 µM (inactive) with HOP-62; 1.52 µM (inactive) in the assay on A498; < 0.01 µM (active) in the assay on XF498; 1.28 µM (inactive) in the assay on UO-31; 0.59 µM (active) in the assay on DMS-273; 0.69 µM (active) with NCI/ADR-RES. The GI50 in the assay with MOLT-4 was 1.26 µM (inactive); in the assay with SF-295 it was 2 µM (inactive); in the assay on HCT-116, 0.321 µM (active); in the assay on M19-MEL, 3.27 µM (inactive); in the assay with MCF7, 0.307 µM (active); with KM-20L2, 1.04 µM (active). Moreover, the GI50 was 1.21 µM (inactive) with DMS-114 and 2.62 µM (inactive) in the assay on HOP-18.
